Results published in PubChem BioAssay AID1845212 (Molecular Pharmacology Branch, DTP, NCI, 2023).
Values joined by “and” are separate entries in the source; they are usually repeats but may differ in a detail not shown here. Identical values can stand only once. Active and inactive are the calls of the source. Rule for the calls: active = viability on the fitted dose curve at most 10% of control; inactive = the rest.

Tested on: NCI-H719 tumor spheroids, viability
Experiment: Anticancer human tumor NCI-H719 cell line growth inhibition;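 for IC50: spheroids exposed to compounds for seven days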;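 for viability, T/C: spheroids exposed to compounds for seven days; percent viability relative to DMSO vehicle control as 100%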
Conditions: spheroids with HUVEC and MSC; for viability, T/C: stronger effect = lower value
Source text: Multicellular complex tumor spheroid response to DNA repair inhibitors in combination with DNA-damaging drugs
This study explores the anticancer activities of DNA-damaging drugs and inhibitors of DNA damage repair, both as single agents and in combinations. Complex tumor spheroids comprised of malignant cells, endothelial cells and mesenchymal stem cells served as an in vitro model for human solid tumors. This model system incorporates physiologically relevant features and patient-derived or established malignant cell lines with clinically relevant genetic alterations from many tumor types. Twenty-six patient-derived or established malignant cell lines were evaluated representing sarcoma, melanoma, small cell lung cancer (SCLC), non-small cell lung cancer (NSCLC), as well as bladder, ovarian and pancreatic cancers. The concentration ranges selected for each drug and investigational agent were based upon clinically achievable concentrations if the clinical Cmax of the agent was known.
Compounds. The drugs and compounds olaparib (NSC753686), talazoparib (NSC767125), berzosertib (NSC777718), elimusertib (NSC800525), nedisertib (NSC802822), VX-984 (NSC792969), AZD-1390 (NSC803789), temozolomide (NSC362856), topotecan (NSC609699), trabectedin (NSC813783), staurosporine (NSC755774), and gemcitabine (NSC613327) were obtained from the National Cancer Institute (NCI) Developmental Therapeutics Program Chemical Repository. The FDA-approved anticancer drug set is available from the Developmental Therapeutics Program at https://dtp.cancer.gov/organization/dscb/obtaining/available_plates.htm. […] The stock solutions were prepared in dimethyl sulfoxide (DMSO, Sigma-Aldrich, St. Louis, MO, cat. D2650) at 400-fold the tested concentration and stored at -70 degrees C. Prior to their use, the stock solutions were diluted in fresh medium and the final DMSO concentration in the assay was 0.25% (v/v). All drugs and investigational agents were tested over a range starting from a high concentration at or near the clinical Cmax and decreasing in half-log increments. If the clinical Cmax for an agent had not been determined, the highest concentration tested was 10 microM.
Cell Lines. The patient-derived cancer cell (PDC) lines: 156681-154-R-J1-PDC, 283228-195-R-J1-PDC, 287954-098-R-J1-PDC, 292921-168-R-J2-PDC, 349418-098-R-PDC, 425362-245-T-J1-PDC, 556581-035-R-J1-PDC, and BL0293-F563-PDC were received from the NCI Patient-Derived Models Repository (PDMR, https://pdmr.cancer.gov). The established cell lines HS-SY-2 (RRID:CVCL_8719), MPNST, and SYO-1 (RRID:CVCL_7146) were obtained from the Sloan Kettering Institute. The alveolar soft parts sarcoma cell line ASPS-1 (RRID:CVCL_S738) was established at the NCI and grown from internal seed stocks. The following established cell lines were purchased from the American Type Culture Collection (ATCC, Manassas, VA): G-401 (ATCC, cat. CRL-1441, RRID:CVCL_0270), SW982 (ATCC, cat. HTB-93, RRID:CVCL_1734), VA-ES-BJ (ATCC, cat. CRL-2138, RRID:CVCL_1785), NCI-H719 (ATCC, cat. CRL-5837, RRID:CVCL_1582), NCI-H196 (ATCC, cat. CRL-5823, RRID:CVCL_1509), NCI-H841 (ATCC, cat. CRL-5845, RRID:CVCL_1595), NCI-H1618 (ATCC, cat. CRL-5879, RRID:CVCL_1480), NCI-H1876 (ATCC, cat. CRL-5902, RRID:CVCL_1503), DMS 114 (ATCC, cat. CRL-2066; RRID:CVCL_1174), NCI-H211 (ATCC, cat. CRL-5824; RRID:CVCL_1529), and SW 1271 (ATCC, cat. CRL-2177, RRID:CVCL_1716). The small cell lung cancer cell line COR-L88 was purchased from Sigma-Aldrich (cat. 92031917-1VL, RRID:CVCL_1141). The non-small cell lung cancer cell lines NCI-H226 (RRID:CVCL_1544) and NCI-H322M (RRID:CVCL_1557) were established at the NCI and grown from internal seed stocks. Pooled donor human umbilical vein endothelial cells (HUVEC, Lonza, cat. CC-2519) and human mesenchymal stem cells (hMSC, Lonza, cat. PT-2501) were purchased from Lonza (Walkersville, MD).
Cell Culture. All cells were maintained in an incubator at 37 degrees C and 5% CO2 with 95% humidity. […]

[1] = curve of first compound, second compound 1 µM
[2] = curve of first compound, second compound 3.16 µM
[3] = curve of first compound, second compound 10 µM
[4] = curve of first compound, second compound 31.6 µM
[5] = curve of first compound, second compound 100 µM
[6] = second compound 1 µM, first compound 0.0316 µM
[7] = second compound 1 µM, first compound 0.1 µM
[8] = second compound 1 µM, first compound 0.316 µM
[9] = second compound 1 µM, first compound 1 µM
[10] = second compound 1 µM, first compound 3.16 µM
[11] = second compound 1 µM, first compound 10 µM
[12] = second compound 3.16 µM, first compound 0.0316 µM
[13] = second compound 3.16 µM, first compound 0.1 µM
[14] = second compound 3.16 µM, first compound 0.316 µM
[15] = second compound 3.16 µM, first compound 1 µM
[16] = second compound 3.16 µM, first compound 3.16 µM
[17] = second compound 3.16 µM, first compound 10 µM
[18] = second compound 10 µM, first compound 0.0316 µM
[19] = second compound 10 µM, first compound 0.1 µM
[20] = second compound 10 µM, first compound 0.316 µM
[21] = second compound 10 µM, first compound 1 µM
[22] = second compound 10 µM, first compound 3.16 µM
[23] = second compound 10 µM, first compound 10 µM
[24] = second compound 31.6 µM, first compound 0.0316 µM
[25] = second compound 31.6 µM, first compound 0.1 µM
[26] = second compound 31.6 µM, first compound 0.316 µM
[27] = second compound 31.6 µM, first compound 1 µM
[28] = second compound 31.6 µM, first compound 3.16 µM
[29] = second compound 31.6 µM, first compound 10 µM
[30] = second compound 100 µM, first compound 0.0316 µM
[31] = second compound 100 µM, first compound 0.1 µM
[32] = second compound 100 µM, first compound 0.316 µM
[33] = second compound 100 µM, first compound 1 µM
[34] = second compound 100 µM, first compound 3.16 µM
[35] = second compound 100 µM, first compound 10 µM

SMILES: Cc1cc(C)c(CNC(=O)c2cc(-c3ccc(CN4CCOCC4)cc3)cc3c2cnn3C2CCCC2)c(=O)[nH]1 + Cn1nnc2c(C(N)=O)ncn2c1=O
- IC50 [1]: > 10000 nM
- IC50 [2]: > 10000 nM
- IC50 [3]: > 10000 nM
- IC50 [4]: > 10000 nM
- IC50 [5]: > 10000 nM
- viability, T/C [6]: 96.9%
- viability, T/C [7]: 105%
- viability, T/C [8]: 100%
- outcome [9]: inactive
- viability, T/C [10]: 94%
- viability, T/C [11]: 76.5%
- viability, T/C [12]: 105%
- viability, T/C [13]: 102%
- viability, T/C [14]: 108%
- viability, T/C [15]: 107%
- viability, T/C [16]: 92.2%
- viability, T/C [17]: 82.2%
- viability, T/C [18]: 105%
- outcome [19]: inactive
- viability, T/C [20]: 108%
- viability, T/C [21]: 110%
- viability, T/C [22]: 94.3%
- viability, T/C [23]: 94.5%
- viability, T/C [24]: 113%
- viability, T/C [25]: 119%
- viability, T/C [26]: 123%
- viability, T/C [27]: 108%
- viability, T/C [28]: 94.6%
- viability, T/C [29]: 85.7%
- viability, T/C [30]: 101%
- viability, T/C [31]: 108%
- viability, T/C [32]: 103%
- viability, T/C [33]: 103%
- viability, T/C [34]: 107%
- viability, T/C [35]: 76.8%

SMILES: COc1cc(C)[nH]c(=O)c1CN1CCc2c(Cl)cc(C(OC)C3COC3)c(Cl)c2C1=O (centres undefined)
- viability, T/C (compound 0.0316 µM): 100% and 103% and 101%
- viability, T/C (compound 0.1 µM): 102% and 75.5% and 111%
- viability, T/C (compound 0.316 µM): 108%
- viability, T/C (compound 1 µM): 109% and 114% (2×)
- viability, T/C (compound 3.16 µM): 102% and 113% and 106%
- viability, T/C (compound 10 µM): 114% and 125% and 109%
- IC50 (curve of compound): > 10000 nM

SMILES: CC1COCCN1c1cc(-c2ccnn2C)c2ccnc(-c3ccn[nH]3)c2n1 (centres undefined) + Cn1nnc2c(C(N)=O)ncn2c1=O
- IC50 [1]: 81.1 nM
- IC50 [2]: 60.2 nM
- IC50 [3]: 63.8 nM
- IC50 [4]: 38.9 nM
- IC50 [5]: < 31.6 nM
- viability, T/C [6]: 60.4%
- viability, T/C [7]: 47.4%
- viability, T/C [8]: 27.2%
- viability, T/C [9]: 13.5%
- viability, T/C [10]: 7.33%
- viability, T/C [11]: 9.3%
- viability, T/C [12]: 61.2%
- viability, T/C [13]: 40.7%
- viability, T/C [14]: 23.1%
- viability, T/C [15]: 10.2%
- viability, T/C [16]: 7.62%
- viability, T/C [17]: 9.51%
- viability, T/C [18]: 63.1%
- viability, T/C [19]: 41%
- viability, T/C [20]: 23.3%
- viability, T/C [21]: 9.97%
- viability, T/C [22]: 7.59%
- viability, T/C [23]: 8.83%
- viability, T/C [24]: 54.5%
- viability, T/C [25]: 30.4%
- viability, T/C [26]: 18.1%
- viability, T/C [27]: 8.01%
- viability, T/C [28]: 6.53%
- viability, T/C [29]: 9.03%
- viability, T/C [30]: 26.8%
- viability, T/C [31]: 14.7%
- viability, T/C [32]: 9.58%
- viability, T/C [33]: 5.42%
- viability, T/C [34]: 17.8%
- viability, T/C [35]: 7.51%

SMILES: Cn1ncnc1[C@H]1c2n[nH]c(=O)c3cc(F)cc(c23)N[C@@H]1c1ccc(F)cc1
- viability, T/C (compound 0.00949 µM): 14.8% and 59.6% and 24.1%
- viability, T/C (compound 0.03 µM): 8.09% and 8.06% and 12.8%
- viability, T/C (compound 0.0949 µM): 6.33% and 7.52% and 10%
- viability, T/C (compound 0.3 µM): 6.84% and 6.92% and 9.12%
- viability, T/C (compound 0.949 µM): 5.82% and 8.51% and 7.74%
- viability, T/C (compound 3 µM): 6.37% and 7.94% and 7.04%
- IC50 (curve of compound): < 9.49 nM and 11.8 nM
